Values of other authors, collected in patent US20130338198A1, “COMPOSITION FOR TREATING DERMATITIS AND ICHTHYOSIS, AND METHOD FOR TREATING DERMATITIS AND ICHTHYOSIS” (Skinvisible Pharmaceuticals, Inc., priority 2010, published 2013).

Settings: in vivo

Substance | dermal toxicity
Poly(vinylpyrrolidone/1-eicosene) [PVPE] | no demonstrable dermal toxicity
Poly(vinylpyrrolidone/1-hexadecene) [PVPH] | no demonstrable dermal toxicity
